Reference: ChEMBL document CHEMBL1201862, “PubChem BioAssay data set” (2004)
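Following 48 hours of exposure in 96-well plates, responses at five concentrations were used to interpolate endpoints linearly. GI50 is the concentration that inhibits growth by half.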 Calls of active or inactive are those of the source. Rule as the data show it: active = GI50 up to about 1.1 µM and inactive = higher.

What was measured:
Assay in all cases: DTP human tumour cell line panel, 48 h
M14 = test system: M14
SF-295 = test system: SF-295
OVCAR-3 = test system: OVCAR-3
M19-MEL = test system: M19-MEL
SW-620 = test system: SW-620
NCI-H23 = test system: NCI-H23
NCI-H522 = test system: NCI-H522
SK-MEL-5 = test system: SK-MEL-5
COLO 205 = test system: COLO 205
IGROV-1 = test system: IGROV-1
HOP-18 = test system: HOP-18
NCI-H460 = test system: NCI-H460
SNB-19 = test system: SNB-19
SF-539 = test system: SF-539
Malme-3M = test system: Malme-3M
K562 = test system: K562
LXFL 529 = test system: LXFL 529
SF-268 = test system: SF-268
RXF 393 = test system: RXF 393
SK-OV-3 = test system: SK-OV-3
HCT-116 = test system: HCT-116
HCC 2998 = test system: HCC 2998
DLD-1 = test system: DLD-1
CCRF-CEM = test system: CCRF-CEM
SK-MEL-28 = test system: SK-MEL-28
A549 = test system: A549
SK-MEL-2 = test system: SK-MEL-2
SNB-75 = test system: SNB-75
TK-10 = test system: TK-10
UO-31 = test system: UO-31
HOP-92 = test system: HOP-92
LOX IMVI = test system: LOX IMVI
786-0 = test system: 786-0
KM12 = test system: KM12
HT-29 = test system: HT-29
OVCAR-8 = test system: OVCAR-8
SR = test system: SR
OVCAR-4 = test system: OVCAR-4
HOP-62 = test system: HOP-62
HL-60 = test system: HL-60
U-251 = test system: U-251
CAKI-1 = test system: CAKI-1
HCT-15 = test system: HCT-15
UACC-62 = test system: UACC-62
A498 = test system: A498
MOLT-4 = test system: MOLT-4
ACHN = test system: ACHN
DMS-114 = test system: DMS-114
DMS-273 = test system: DMS-273
RPMI-8226 = test system: RPMI-8226
SN12C = test system: SN12C
OVCAR-5 = test system: OVCAR-5
KM-20L2 = test system: KM-20L2
EKVX = test system: EKVX
UACC-257 = test system: UACC-257
NCI-H226 = test system: NCI-H226
SNB-78 = test system: SNB-78

N#CC(=C1C=CC(=NO)C=C1)c1ccc(Cl)cc1
GI50 (M14): 16.4 µM (inactive)
GI50 (SF-295): 16.6 µM (inactive)
GI50 (OVCAR-3): 3.52 µM (inactive)
GI50 (M19-MEL): 15 µM (inactive)
GI50 (SW-620): 7.21 µM (inactive)
GI50 (NCI-H23): 23.7 µM (inactive)
GI50 (NCI-H522): 2.47 µM (inactive)
GI50 (SK-MEL-5): 7.5 µM (inactive)
GI50 (COLO 205): 16.8 µM (inactive)
GI50 (IGROV-1): 17.1 µM (inactive)
GI50 (HOP-18): 49 µM (inactive)
GI50 (NCI-H460): 18.2 µM (inactive)
GI50 (SNB-19): 42.4 µM (inactive)
GI50 (SF-539): 7.33 µM (inactive)
GI50 (Malme-3M): 21.8 µM (inactive)
GI50 (K562): 3.78 µM (inactive)
GI50 (LXFL 529): 4.97 µM (inactive)
GI50 (SF-268): 11.9 µM (inactive)
GI50 (RXF 393): 16 µM (inactive)
GI50 (SK-OV-3): 22.2 µM (inactive)
GI50 (HCT-116): 7.52 µM (inactive)
GI50 (HCC 2998): 17.5 µM (inactive)
GI50 (DLD-1): 14.2 µM (inactive)
GI50 (CCRF-CEM): 2.69 µM (inactive)
GI50 (SK-MEL-28): 15.7 µM (inactive)
GI50 (A549): 18.7 µM (inactive)
GI50 (SK-MEL-2): 4.36 µM (inactive)
GI50 (SNB-75): 24.3 µM (inactive)
GI50 (TK-10): 24.7 µM (inactive)
GI50 (UO-31): 11.5 µM (inactive)
GI50 (HOP-92): 20 µM (inactive)
GI50 (LOX IMVI): 3.22 µM (inactive)
GI50 (786-0): 2.29 µM (inactive)
GI50 (KM12): 1.69 µM (inactive)
GI50 (HT-29): 5.56 µM (inactive)
GI50 (OVCAR-8): 19.1 µM (inactive)
GI50 (SR): 4.83 µM (inactive)
GI50 (OVCAR-4): 22.5 µM (inactive)
GI50 (HOP-62): 15.3 µM (inactive)
GI50 (HL-60): 2.36 µM (inactive)
GI50 (U-251): 13.6 µM (inactive)
GI50 (CAKI-1): 15.1 µM (inactive)
GI50 (HCT-15): 13.7 µM
GI50 (UACC-62): 3.71 µM (inactive)
GI50 (A498): 67.3 µM (inactive)
GI50 (MOLT-4): 5.74 µM (inactive)
GI50 (ACHN): 10.6 µM (inactive)
GI50 (DMS-114): 15.4 µM (inactive)
GI50 (DMS-273): 6.58 µM (inactive)
GI50 (RPMI-8226): 2.6 µM (inactive)
GI50 (SN12C): 16.5 µM (inactive)
GI50 (OVCAR-5): 11.9 µM (inactive)
GI50 (KM-20L2): 19.7 µM (inactive)

COc1ccc(NC(=O)C(=O)Cc2nc3ccc([N+](=O)[O-])cc3nc2O)c(OC)c1
GI50 (M14): > 100 µM (inactive)
GI50 (SF-295): > 100 µM (inactive)
GI50 (OVCAR-3): > 100 µM (inactive)
GI50 (M19-MEL): > 100 µM (inactive)
GI50 (SW-620): > 100 µM (inactive)
GI50 (NCI-H23): > 100 µM (inactive)
GI50 (NCI-H522): 83.4 µM (inactive)
GI50 (SK-MEL-5): > 100 µM (inactive)
GI50 (COLO 205): > 100 µM (inactive)
GI50 (IGROV-1): > 100 µM (inactive)
GI50 (EKVX): > 100 µM (inactive)
GI50 (UACC-257): > 100 µM (inactive)
GI50 (HOP-18): 56.1 µM (inactive)
GI50 (NCI-H460): > 100 µM (inactive)
GI50 (SNB-19): > 100 µM (inactive)
GI50 (SF-539): > 100 µM (inactive)
GI50 (Malme-3M): > 100 µM (inactive)
GI50 (K562): > 100 µM (inactive)
GI50 (LXFL 529): > 100 µM (inactive)
GI50 (RXF 393): > 100 µM (inactive)
GI50 (SK-OV-3): > 100 µM (inactive)
GI50 (HCT-116): > 100 µM (inactive)
GI50 (HCC 2998): > 100 µM (inactive)
GI50 (DLD-1): > 100 µM (inactive)
GI50 (CCRF-CEM): > 100 µM (inactive)
GI50 (SK-MEL-28): > 100 µM (inactive)
GI50 (A549): > 100 µM (inactive)
GI50 (SK-MEL-2): > 100 µM (inactive)
GI50 (SNB-75): > 100 µM (inactive)
GI50 (TK-10): > 100 µM (inactive)
GI50 (UO-31): > 100 µM (inactive)
GI50 (HOP-92): > 100 µM (inactive)
GI50 (LOX IMVI): 87.9 µM (inactive)
GI50 (NCI-H226): > 100 µM (inactive)
GI50 (786-0): > 100 µM (inactive)
GI50 (KM12): > 100 µM (inactive)
GI50 (HT-29): > 100 µM (inactive)
GI50 (OVCAR-4): > 100 µM (inactive)
GI50 (HL-60): > 100 µM (inactive)
GI50 (CAKI-1): > 100 µM (inactive)
GI50 (HCT-15): > 100 µM
GI50 (UACC-62): > 100 µM (inactive)
GI50 (A498): 44.6 µM (inactive)
GI50 (MOLT-4): > 100 µM (inactive)
GI50 (ACHN): > 100 µM (inactive)
GI50 (DMS-114): > 100 µM (inactive)
GI50 (DMS-273): > 100 µM (inactive)
GI50 (OVCAR-5): > 100 µM (inactive)
GI50 (KM-20L2): > 100 µM (inactive)

C=CC1=C(C)c2cc3[nH]c(cc4nc(cc5[nH]c(cc1n2)c(C)c5CCC(=O)N(CC)CC)C(CCC(=O)N(CC)CC)=C4C)c(C)c3C=C
GI50 (M14): > 100 µM (inactive)
GI50 (SF-295): 61.2 µM (inactive)
GI50 (OVCAR-3): > 100 µM (inactive)
GI50 (M19-MEL): > 100 µM (inactive)
GI50 (SW-620): > 100 µM (inactive)
GI50 (NCI-H23): > 100 µM (inactive)
GI50 (NCI-H522): > 100 µM (inactive)
GI50 (SK-MEL-5): > 100 µM (inactive)
GI50 (IGROV-1): > 100 µM (inactive)
GI50 (EKVX): > 100 µM (inactive)
GI50 (UACC-257): > 100 µM (inactive)
GI50 (HOP-18): < 0.01 µM (active)
GI50 (NCI-H460): > 100 µM (inactive)
GI50 (SF-539): > 100 µM (inactive)
GI50 (Malme-3M): > 100 µM (inactive)
GI50 (K562): > 100 µM (inactive)
GI50 (LXFL 529): > 100 µM (inactive)
GI50 (RXF 393): 75.9 µM (inactive)
GI50 (SK-OV-3): > 100 µM (inactive)
GI50 (HCT-116): > 100 µM (inactive)
GI50 (SNB-78): > 100 µM (inactive)
GI50 (HCC 2998): > 100 µM (inactive)
GI50 (DLD-1): > 100 µM (inactive)
GI50 (CCRF-CEM): > 100 µM (inactive)
GI50 (SK-MEL-28): > 100 µM (inactive)
GI50 (A549): > 100 µM (inactive)
GI50 (SK-MEL-2): > 100 µM (inactive)
GI50 (SNB-75): 29.4 µM (inactive)
GI50 (TK-10): > 100 µM (inactive)
GI50 (UO-31): > 100 µM (inactive)
GI50 (HOP-92): 6.04 µM (inactive)
GI50 (LOX IMVI): > 100 µM (inactive)
GI50 (786-0): > 100 µM (inactive)
GI50 (KM12): > 100 µM (inactive)
GI50 (HT-29): > 100 µM (inactive)
GI50 (OVCAR-8): > 100 µM (inactive)
GI50 (SR): > 100 µM (inactive)
GI50 (OVCAR-4): > 100 µM (inactive)
GI50 (HOP-62): > 100 µM (inactive)
GI50 (HL-60): > 100 µM (inactive)
GI50 (U-251): > 100 µM (inactive)
GI50 (HCT-15): > 100 µM
GI50 (UACC-62): > 100 µM (inactive)
GI50 (MOLT-4): > 100 µM (inactive)
GI50 (ACHN): > 100 µM (inactive)
GI50 (SN12C): > 100 µM (inactive)
GI50 (OVCAR-5): 74.5 µM (inactive)
GI50 (KM-20L2): > 100 µM (inactive)

CC(=O)O[C@]12CCCCC1C1(O)C(O)CCCCC12 (stereo partly drawn)
GI50 (M14): > 100 µM (inactive)
GI50 (SF-295): > 100 µM (inactive)
GI50 (M19-MEL): > 100 µM (inactive)
GI50 (SW-620): > 100 µM (inactive)
GI50 (NCI-H23): > 100 µM (inactive)
GI50 (NCI-H522): > 100 µM (inactive)
GI50 (SK-MEL-5): > 100 µM (inactive)
GI50 (COLO 205): > 100 µM (inactive)
GI50 (EKVX): > 100 µM (inactive)
GI50 (UACC-257): > 100 µM (inactive)
GI50 (HOP-18): > 100 µM (inactive)
GI50 (NCI-H460): > 100 µM (inactive)
GI50 (SNB-19): > 100 µM (inactive)
GI50 (Malme-3M): > 100 µM (inactive)
GI50 (K562): > 100 µM (inactive)
GI50 (LXFL 529): > 100 µM (inactive)
GI50 (SF-268): > 100 µM (inactive)
GI50 (RXF 393): > 100 µM (inactive)
GI50 (SK-OV-3): > 100 µM (inactive)
GI50 (HCT-116): > 100 µM (inactive)
GI50 (SNB-78): > 100 µM (inactive)
GI50 (CCRF-CEM): > 100 µM (inactive)
GI50 (SK-MEL-28): > 100 µM (inactive)
GI50 (A549): > 100 µM (inactive)
GI50 (SK-MEL-2): > 100 µM (inactive)
GI50 (SNB-75): > 100 µM (inactive)
GI50 (TK-10): > 100 µM (inactive)
GI50 (UO-31): > 100 µM (inactive)
GI50 (LOX IMVI): > 100 µM (inactive)
GI50 (NCI-H226): > 100 µM (inactive)
GI50 (786-0): > 100 µM (inactive)
GI50 (KM12): > 100 µM (inactive)
GI50 (HT-29): > 100 µM (inactive)
GI50 (OVCAR-8): > 100 µM (inactive)
GI50 (SR): > 100 µM (inactive)
GI50 (OVCAR-4): > 100 µM (inactive)
GI50 (HOP-62): > 100 µM (inactive)
GI50 (HL-60): > 100 µM (inactive)
GI50 (U-251): > 100 µM (inactive)
GI50 (HCT-15): > 100 µM
GI50 (UACC-62): > 100 µM (inactive)
GI50 (MOLT-4): > 100 µM (inactive)
GI50 (ACHN): 76 µM (inactive)
GI50 (DMS-114): > 100 µM (inactive)
GI50 (DMS-273): > 100 µM (inactive)
GI50 (RPMI-8226): > 100 µM (inactive)
GI50 (SN12C): > 100 µM (inactive)
GI50 (KM-20L2): > 100 µM (inactive)
